From US20180111913A1, “SUBSTITUTED BENZOFURAN DERIVATIVES AS NOVEL ANTIMYCOBACTERIAL AGENTS” (priority 2015, published 2018)
Converted amounts (≈) assume the structure as drawn. Like-named read-outs stand apart in the source and are kept apart here.

Experiments:
[1] = biological target: Mtb Pks13-TE domain (wild-type) (Mycobacterium tuberculosis, UniProt I6X8D2); test: biochemical; assay type: biochemical
M tuberculosis = assay type: in vivo, Mycobacterium tuberculosis in GKO mice
[2] = GKO mice, 300 mg/kg, 200 mg/kg from day 4; seizures
Mtb strain mc^27000 = test: microbe, parasite or virus in culture; assay type: cell-based, Mycobacterium tuberculosis
[3] = test system: human dermal fibroblast (HDF) cells; conditions: for Survival vs. Control: HDF cell survival relative to DMSO-only control at the first (or only) Non-Toxic Concentration value; for Non-Toxic Concentration: human, 48 h
Mtb (Erdman lux strain) = assay type: in vivo, Mycobacterium tuberculosis in female Balb/C mice
Mtb isolate H37Rv = conditions: whole-cell screen; cited from earlier work
[4] = Pks13-TE, 20 μM 4-MUH, read-out: IC50
[5] = Pks13 enzyme inhibition, read-out: Pks13 IC50
[6] = Mycobacterium tuberculosis, read-out: Pks13 MIC
[7] = Mycobacterium tuberculosis, Mtb mc^27000, liquid medium, 96-well plates, read-out: MIC

Sequence of Mtb Pks13-TE domain (wild-type) (I6X8D2 1451-1733): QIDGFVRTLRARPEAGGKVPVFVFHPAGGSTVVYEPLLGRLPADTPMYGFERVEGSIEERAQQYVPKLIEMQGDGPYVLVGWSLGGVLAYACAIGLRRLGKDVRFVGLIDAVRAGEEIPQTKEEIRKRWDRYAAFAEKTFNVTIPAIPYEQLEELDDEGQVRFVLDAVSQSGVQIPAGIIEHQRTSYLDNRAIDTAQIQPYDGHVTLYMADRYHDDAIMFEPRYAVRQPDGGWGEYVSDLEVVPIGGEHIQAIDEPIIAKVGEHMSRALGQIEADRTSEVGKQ

Row | SMILES | IC50 [1, 4] [nM] | IC50 [1, 5] [nM] | Lung CFU (M tuberculosis; mouse, in vivo) | Lung RLU (M tuberculosis; mouse, in vivo) | Spleen CFU (M tuberculosis; mouse, in vivo) | Spleen RLU (M tuberculosis; mouse, in vivo) | MIC (Mtb strain mc^27000; [6]) [µM] | Survival vs. Control [3] [%] | Non-Toxic Concentration [3] [µM] | Diff of Means, Control vs. treatment, Lung (M tuberculosis; mouse, in vivo) | Diff of Means, Control vs. treatment, Spleen (M tuberculosis; mouse, in vivo) | MIC (Mtb strain mc^27000; [7]) [µM] | also measured
1 | CNC(=O)c1c(-c2ccccc2)oc2ccc(O)c(CN3CCCCC3)c12 [compound 17] | 290 | 290 | 7.21 | 4.24 | 3.01 | 1.85 | 0.2 (≈ 0.0729 µg/mL) | 103 | 50 | – | – | – | IC50 ([1]; Mtb Pks13-TE domain, mean ± s.d. of triplicates, read-out: IC50): 290 ± 10 nM; log CFU reduction versus untreated control in the lungs (M tuberculosis; GKO mice, 300 mg/kg then 200 mg/kg from day 4, sacrificed day 8 of dosing, no drug clearance period, lungs): 0.53 log CFU; log CFU reduction versus untreated control in the spleen (M tuberculosis; GKO mice, 300 mg/kg then 200 mg/kg from day 4, sacrificed day 8 of dosing, no drug clearance period, spleen): 3.72 log CFU; toxicity observed during dosing [2]: apparent toxicity; MIC (Mtb strain mc^27000; Mtb mc^27000, liquid medium, 96-well plates, listed as compound L, read-out: MIC): 0.2 µM (≈ 0.0729 µg/mL); MIC (Mtb strain mc^27000; Mtb mc^27000, liquid medium, 96-well plates, read-out: MIC): 2 µM (≈ 0.729 µg/mL); MIC (Mtb strain mc^27000; Mycobacterium tuberculosis, […], mean ± s.d. of triplicates, NI: no inhibition, read-out: MIC): 0.2 µM (≈ 0.0729 µg/mL); MIC lower than that of the test compound (Mtb strain mc^27000; relative to test compound): > 10 fold; growth inhibition in HDF cells relative to DMSO only control [3]: did not show any growth inhibition
2 | CNC(=O)c1c(-c2ccc(OC)cc2)oc2ccc(O)c(CN3CCCCC3)c12 [compound 31] | 260 | 260 | 7.33 | 5.06 | 5.11 | 2.59 | 1.1 (≈ 0.434 µg/mL) | 111 | 50 | 0.834 | 2.623 | 1.1 (≈ 0.434 µg/mL) | log CFU reduction in the lungs vs. untreated controls (M tuberculosis; GKO mice, 100 mg/kg oral once daily, 9 days, lungs): 0.84 log CFU; log CFU reduction in the spleen relative to untreated controls (M tuberculosis; GKO mice, 100 mg/kg oral once daily, 9 days, spleen): 1.54 log CFU; Diff of Means, Inhibitor 31 vs. Inhibitor 32, Lung (M tuberculosis; mouse, in vivo): 0.340; Diff of Means, Inhibitor 31 vs. Inhibitor 32, Spleen (M tuberculosis; mouse, in vivo): 0.522; Diff of Means, Inhibitor 31 vs. Isoniazid, Lung (M tuberculosis; mouse, in vivo): 2.179; Diff of Means, Inhibitor 31 vs. Isoniazid, Spleen (M tuberculosis; mouse, in vivo): 2.101
3 | CNC(=O)c1c(-c2ccc(O)cc2)oc2cc(O)cc(CN3CCCCC3)c12 [compound 47] | 570 | – | 8.39 | 6.09 | 6.84 | 4.45 | 1 (≈ 0.38 µg/mL) | 98 | 50 | – | – | 1 (≈ 0.38 µg/mL) | activity in the lungs or the spleen, in words (M tuberculosis; GKO mice, 300 mg/kg dosing): did not show any activity
4 | NNC(=O)c1ccncc1 [isoniazid, reference compound] | – | – | 5.15 | 3.51 | 2.49 | 1.77 | – | – | – | 3.013 | 3.644 | – | log reduction (CFU) in the spleen (Mtb (Erdman lux strain); Balb/C mice, isoniazid control 25 mg/kg, 4 weeks, spleen): 2.52 log; Diff of Means, Control vs. treatment (Mtb (Erdman lux strain); […], organ not given, values match spleen reductions of b137): 2.523; Lung CFU (Mtb (Erdman lux strain); mouse, in vivo): 4.98; Lung RLU (Mtb (Erdman lux strain); mouse, in vivo): 2.37; Spleen CFU (Mtb (Erdman lux strain); mouse, in vivo): 2.35; Spleen RLU (Mtb (Erdman lux strain); mouse, in vivo): 1.59; log reduction (CFU) in the lungs (Mtb (Erdman lux strain); mouse, in vivo): 1.11 log; log CFU reduction in the spleen (M tuberculosis; mouse, in vivo): 4.16 log CFU; log CFU reduction relative to untreated control in the lungs (M tuberculosis; mouse, in vivo): 3.02 log CFU; log reduction in RLU (luciferase assay) (M tuberculosis; mouse, in vivo, 25 mg/kg): 1.01 log
5 | CCOC(=O)c1c(-c2ccccc2)oc2ccc(O)c(CN3CCC(C)CC3)c12 [test compound] | – | – | – | – | – | – | – | – | – | – | – | – | MIC against Mtb isolate H37Rv (Mtb isolate H37Rv): 2.0 µM (≈ 0.787 µg/mL)
